ChEMBL document CHEMBL5365461, “Degradation of Cyclin-Dependent Kinase 9/Cyclin T1 by Optimized Microtubule-Associated Protein 1 Light Chain 3 Beta-Recruiting Coumarin Analogs” (J Med Chem, 2023)
Active and inactive are the calls of the source. No cut-off for these calls is given here.

Experiments:
[1] = molecular target: Cyclin-dependent kinase 9 (Homo sapiens) (UniProt P50750); experiment: Inhibition of GST-fused human full-length CDK9 (1 to 372(end) residues)/N-terminal GST-fused His-tagged human full-length CyclinT1 (1 to 726(end) residues) expressed in baculovirus expression system at 10 nM using CDK7/9 tide as substrate incubated for 120 mins in presence of ATP by ADP-Glo Kinase assay relative to control
Sequence of Cyclin-dependent kinase 9 (Homo sapiens) (P50750 whole entry, the tested form may be a part): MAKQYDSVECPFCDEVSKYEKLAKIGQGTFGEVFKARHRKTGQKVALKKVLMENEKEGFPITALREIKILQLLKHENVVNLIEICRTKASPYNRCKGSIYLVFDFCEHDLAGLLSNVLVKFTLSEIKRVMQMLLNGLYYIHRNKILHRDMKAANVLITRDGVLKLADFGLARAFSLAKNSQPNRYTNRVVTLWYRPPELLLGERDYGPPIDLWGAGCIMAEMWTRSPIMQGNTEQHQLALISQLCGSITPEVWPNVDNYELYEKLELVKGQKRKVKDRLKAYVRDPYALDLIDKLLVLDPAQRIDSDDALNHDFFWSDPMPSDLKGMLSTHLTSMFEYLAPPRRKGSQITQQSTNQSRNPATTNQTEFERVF

[2] = molecular target: Cyclin-dependent kinase 9 (Homo sapiens) (UniProt P50750); experiment: Inhibition of GST-fused human full-length CDK9 (1 to 372(end) residues)/N-terminal GST-fused His-tagged human full-length CyclinT1 (1 to 726(end) residues) expressed in baculovirus expression system at 100 nM using CDK7/9 tide as substrate incubated for 120 mins in presence of ATP by ADP-Glo Kinase assay relative to control
[3] = molecular target: Cyclin-dependent kinase 9 (Homo sapiens) (UniProt P50750); experiment: Induction of CDK9 42 kDa degradation in human U2932 cells assessed as maximal efficacy at 1 to 1000 nM by immunoblotting analysis relative to control; format: cell-based; conditions: dose 1-1000 nM
[4] = molecular target: Cyclin-dependent kinase 9 (Homo sapiens) (UniProt P50750); experiment: Induction of CDK9 42 kDa degradation in human U2932 cells by immunoblotting analysis; format: cell-based; conditions: dose 1-1000 nM
[5] = molecular target: Cyclin-dependent kinase 9 (Homo sapiens) (UniProt P50750); experiment: Induction of CDK9 55 kDa degradation in human U2932 cells by immunoblotting analysis; format: cell-based; conditions: dose 1-1000 nM
[6] = molecular target: Cyclin-dependent kinase 9 (Homo sapiens) (UniProt P50750); experiment: Induction of CDK9 42 kDa degradation in human U2932 cells at 100 nM by immunoblotting analysis; format: cell-based; conditions: time 1-24 hrs, TDE = time-dependent effect
[7] = molecular target: Cyclin-dependent kinase 9 (Homo sapiens) (UniProt P50750); experiment: Induction of CDK9 55 kDa degradation in human U2932 cells at 100 nM by immunoblotting analysis; format: cell-based; conditions: time 1-24 hrs, TDE = time-dependent effect
HCT-116 = experiment: Cytotoxicity against human HCT-116 cells assessed as inhibition of cell growth measured after 72 hrs by CCK-8 assay; format: functional, cell-based
A2780 = experiment: Cytotoxicity against human A2780 cells assessed as inhibition of cell growth measured after 72 hrs by CCK-8 assay; format: functional, cell-based
KP-4 = experiment: Cytotoxicity against human KP-4 cells assessed as inhibition of cell growth measured after 72 hrs by CCK-8 assay; format: functional, cell-based
U2932 [8] = experiment: Downregulation of RNAP2 phosphorylation at serine 2 residue in human U2932 cells at 10 to 1000 nM incubated for 6 hrs by immunoblotting analysis; format: functional, cell-based; conditions: dose 10-1000 nM
U2932 [9] = experiment: Downregulation of Mcl-1 protein level in human U2932 cells incubated for 6 hrs by RT-qPCR analysis; format: functional, cell-based; conditions: dose 10-1000 nM
U2932 [10] = experiment: Downregulation of c-Myc protein level in human U2932 cells incubated for 6 hrs by RT-qPCR analysis; format: functional, cell-based; conditions: dose 10-1000 nM
MV4-11 [11] = experiment: Downregulation of Mcl-1 protein level in human MV4-11 cells incubated for 6 hrs by RT-qPCR analysis; format: functional, cell-based; conditions: dose 10-1000 nM
U2932 [12] = experiment: Induction of apoptosis in human U2932 cells assessed as viable cells at 1000 nM incubated for 24 hrs by AnnexinV-FITC/PI staining based flow cytometry analysis (reference value: 86.9%); format: functional; conditions: read-out: Activity
U2932 [13] = experiment: Induction of apoptosis in human U2932 cells assessed as late apoptotic cells at 1000 nM incubated for 24 hrs by AnnexinV-FITC/PI staining based flow cytometry analysis (reference value: 5.95%); format: functional
U2932 [14] = experiment: Induction of apoptosis in human U2932 cells assessed as necrotic cells at 1000 nM incubated for 24 hrs by AnnexinV-FITC/PI staining based flow cytometry analysis (reference value: 0.92%); format: functional
MV4-11 [15] = experiment: Induction of apoptosis in human MV4-11 cells at 1000 nM incubated for 24 hrs by AnnexinV-FITC/PI staining based flow cytometry analysis; format: functional, cell-based
[16] = molecular target: Cyclin-dependent kinase 9 (Homo sapiens) (UniProt P50750); experiment: Induction of CDK9 42 kDa degradation in human U2932 cells at 500 nM incubated for 12 hrs in presence of SNS-032 by immunoblotting analysis; format: cell-based
[17] = molecular target: Cyclin-dependent kinase 9 (Homo sapiens) (UniProt P50750); experiment: Induction of CDK9 42 kDa degradation in human U2932 cells at 500 nM incubated for 12 hrs in presence of 5,7-Dihydroxy-4-methylcoumarin by immunoblotting analysis; format: cell-based
[18] = molecular target: Cyclin-dependent kinase 9 (Homo sapiens) (UniProt P50750); experiment: Induction of CDK9 55 kDa degradation in human U2932 cells at 500 nM incubated for 12 hrs in presence of 5,7-Dihydroxy-4-methylcoumarin by immunoblotting analysis; format: cell-based
[19] = molecular target: Cyclin-dependent kinase 9 (Homo sapiens) (UniProt P50750); experiment: Induction of CDK9 42 kDa degradation in human U2932 cells at 500 nM incubated for 12 hrs in presence of BafA1 by immunoblotting analysis; format: cell-based
[20] = molecular target: Cyclin-dependent kinase 9 (Homo sapiens) (UniProt P50750); experiment: Induction of CDK9 55 kDa degradation in human U2932 cells at 500 nM incubated for 12 hrs in presence of BafA1 by immunoblotting analysis; format: cell-based
[21] = molecular target: Cyclin-dependent kinase 9 (Homo sapiens) (UniProt P50750); experiment: Induction of CDK9 42 kDa degradation in human U2932 cells at 500 nM incubated for 12 hrs in presence of HCQ by immunoblotting analysis; format: cell-based
[22] = molecular target: Cyclin-dependent kinase 9 (Homo sapiens) (UniProt P50750); experiment: Induction of CDK9 55 kDa degradation in human U2932 cells at 500 nM incubated for 12 hrs in presence of HCQ by immunoblotting analysis; format: cell-based
[23] = molecular target: Cyclin-dependent kinase 9 (Homo sapiens) (UniProt P50750); experiment: Induction of CDK9 42 kDa degradation in human U2932 cells at 500 nM incubated for 12 hrs in presence of MLN4924 by immunoblotting analysis; format: cell-based
[24] = molecular target: Cyclin-dependent kinase 9 (Homo sapiens) (UniProt P50750); experiment: Induction of CDK9 55 kDa degradation in human U2932 cells at 500 nM incubated for 12 hrs in presence of MLN4924 by immunoblotting analysis; format: cell-based
[25] = molecular target: Cyclin-dependent kinase 9 (Homo sapiens) (UniProt P50750); experiment: Induction of CDK9 42 kDa degradation in human U2932 cells at 500 nM incubated for 12 hrs in presence of MG132 by immunoblotting analysis; format: cell-based
[26] = molecular target: Cyclin-dependent kinase 9 (Homo sapiens) (UniProt P50750); experiment: Induction of CDK9 55 kDa degradation in human U2932 cells at 500 nM incubated for 12 hrs in presence of MG132 by immunoblotting analysis; format: cell-based
[27] = molecular target: Cyclin-dependent kinase 9 (Homo sapiens) (UniProt P50750); experiment: Induction of CDK9 42 kDa degradation in human U2932 cells at 500 nM incubated for 12 hrs in presence of BafA1 by Co-immunoprecipitation analysis; format: cell-based
U2932 [28] = experiment: Induction of LC3B […] in human U2932 cells at 500 nM incubated for 12 hrs in presence of BafA1 by Co-immunoprecipitation analysis; format: cell-based
[29] = Half life in CD-1 mouse at 5 mg/kg, ip measured after 24 hrs by LC-MS/MS analysis; format: ADME, organism-based; conditions: in vivo
[30] = Cmax in CD-1 mouse at 5 mg/kg, ip measured after 24 hrs by LC-MS/MS analysis; format: ADME, organism-based; parameters: dose 5 mg/kg, time 24 hrs, route ip; conditions: in vivo
[31] = AUC(0 to t) in CD-1 mouse at 1 mg/kg, iv measured after 24 hrs by LC-MS/MS analysis; format: ADME, organism-based; parameters: time 24 hrs, dose 1 mg/kg, route iv; conditions: in vivo
[32] = Observed clearance in CD-1 mouse at 1 mg/kg, iv measured after 24 hrs by LC-MS/MS analysis; format: ADME, organism-based; conditions: in vivo
[33] = Observed MRTinfinity in CD-1 mouse at 1 mg/kg, iv measured after 24 hrs by LC-MS/MS analysis; format: ADME, organism-based; conditions: in vivo
[34] = Volume of distribution at steady state in CD-1 mouse at 1 mg/kg, iv measured after 24 hrs by LC-MS/MS analysis; format: ADME, organism-based; conditions: in vivo, read-out: Vdss

SMILES	inhibition [1] [%]	inhibition [2] [%]	Emax [3] [%]	Activity [4]	Activity [5]	Activity [6]	Activity [7]	Activity (HCT-116)	Activity (A2780)	Activity (KP-4)	Activity (U2932 [8])	Activity (U2932 [9])	Activity (U2932 [10])	Activity (MV4-11 [11])	viability at 1 µM (U2932 [12]) [%]	Activity (U2932 [13]) [%]	Activity (U2932 [14]) [%]	Activity (MV4-11 [15])	Activity [16]	Activity [17]	further results
Cc1cc(=O)oc2cc(OCCCN3CCC(C(=O)Nc4ncc(SCc5ncc(C(C)(C)C)o5)s4)CC3)cc(O)c12	1	65	49.9	Dose-Dependent Effect	Dose-Dependent Effect	Tde	Tde	Active	Active	Active	Active	Active	Active	Dose-Dependent Effect	47.4	38.7	2.08	Active	inactive	inactive	Activity [18]: inactive; Activity [19]: inactive; Activity [20]: inactive; Activity [21]: inactive; Activity [22]: inactive; Activity [23]: Active; Activity [24]: Active; Activity [25]: Active; Activity [26]: Active; Activity [27]: Active; Activity (U2932 [28]): Active; half-life [29]: 3.61 h; Cmax [30]: 88.6 ng/mL; AUC(0-t) at 24 h [31]: 116 ng·h/mL; clearance [32]: 140 mL/min/kg; MRT inf [33]: 0.674 h; Vd [34]: 5.7 L/kg
Cc1cc(=O)oc2cc(O)cc(OCCCCCN3CCC(C(=O)Nc4ncc(SCc5ncc(C(C)(C)C)o5)s4)CC3)c12	1	54	59	Dose-Dependent Effect	Dose-Dependent Effect	Tde	Tde	Active	Active	Active	Active	Active	Active	Dose-Dependent Effect	41.8	40.9	2.12	Active	inactive	inactive	Activity [18]: inactive; Activity [19]: inactive; Activity [20]: inactive; Activity [21]: inactive; Activity [22]: inactive; Activity [23]: Active; Activity [24]: Active; Activity [25]: Active; Activity [26]: Active; Activity [27]: Active; Activity (U2932 [28]): Active; half-life [29]: 4.66 h; Cmax [30]: 88.4 ng/mL; AUC(0-t) at 24 h [31]: 72.3 ng·h/mL; clearance [32]: 229 mL/min/kg; MRT inf [33]: 0.79 h; Vd [34]: 10.5 L/kg
